“And” between values parts separate entries of the source, which are not always exact repeats. Equal values may be shown once. Inconclusive results and toxic doses are left out. Rule for the calls: active = survival T/C of 150% or more; inactive = T/C below 125% in these data.
Test system: BDF1 mice, B16 melanoma ip, median survival T/C
Test: NCI In Vivo Anticancer Drug Screen. Data for tumor model B16 Melanoma (intraperitoneal) in B6D2F1 (BDF1) mice
Conditions: endpoint: median survival time, higher = longer survival
Summary of the method: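 Values are ratios of treated (T) to vehicle-control (C) measurements of survival or tumor size in tumor-bearing mice.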

[1] = dose: 25.0 mg/kg/injection, schedule: Q01DX009 (ip), vehicle: Klucel (hydroxypropylcellulose) (HPC)
[2] = dose: 50.0 mg/kg/injection, schedule: Q01DX009 (ip), vehicle: Klucel (hydroxypropylcellulose) (HPC)
[3] = dose: 100.0 mg/kg/injection, schedule: Q01DX009 (ip), vehicle: Klucel (hydroxypropylcellulose) (HPC)
[4] = dose: 200.0 mg/kg/injection, schedule: Q01DX009 (ip), vehicle: Klucel (hydroxypropylcellulose) (HPC)
[5] = dose: 400.0 mg/kg/injection, schedule: Q01DX009 (ip), vehicle: Klucel (hydroxypropylcellulose) (HPC)
[6] = dose: 12.5 mg/kg/injection, schedule: Q01DX009 (ip), vehicle: Klucel (hydroxypropylcellulose) (HPC)
[7] = dose: 50.0 mg/kg/injection, schedule: Q01DX009 (ip), vehicle: saline with Tween-80
[8] = dose: 100.0 mg/kg/injection, schedule: Q01DX009 (ip), vehicle: saline with Tween-80
[9] = dose: 200.0 mg/kg/injection, schedule: Q01DX009 (ip), vehicle: saline with Tween-80
[10] = dose: 25.0 mg/kg/injection, schedule: Q01DX009 (ip), vehicle: saline with Tween-80

Measured: T/C

COc1cc2cc(c1Cl)N(C)C(=O)/C=C/C1(C)OC1C(C)C1CC(O)(NC(=O)O1)C(OC)C=C/C=C(\C)C2 (configuration not stated)
inactive: dose: 1.3 micrograms/kg/injection, schedule: Q01DX009 (ip), vehicle: saline + alcohol 100 % of control | dose: 2.5 micrograms/kg/injection, schedule: Q01DX009 (ip), vehicle: saline + alcohol 97 % of control | dose: 5.0 micrograms/kg/injection, schedule: Q01DX009 (ip), vehicle: saline + alcohol 97 % of control | dose: 10.0 micrograms/kg/injection, schedule: Q01DX009 (ip), vehicle: saline + alcohol 92 % of control

O=C(O)c1ccc2c3c(ccc(C(=O)O)c13)CC2
inactive: [1] 92 % of control | [2] 91 % of control

Cc1cc2no[n+]([O-])c2cc1C
inactive: [2] 116 % of control | [3] 99 % of control | [4] 117 % of control

CCOC(=O)c1ccc(NC(=O)NC)cc1
inactive: dose: 100.0 mg/kg/injection, schedule: Q04DX003 (ip), vehicle: saline with Tween-80 93 % of control | dose: 200.0 mg/kg/injection, schedule: Q04DX003 (ip), vehicle: saline with Tween-80 86 % of control | dose: 400.0 mg/kg/injection, schedule: Q04DX003 (ip), vehicle: saline with Tween-80 86 % of control

C/C(=N/NC(=O)c1ccccc1)c1ccccc1O
inactive: dose: 100.0 mg/kg/injection, schedule: Q04DX003 (ip), vehicle: gum acacia 93 % of control | dose: 200.0 mg/kg/injection, schedule: Q04DX003 (ip), vehicle: gum acacia 95 % of control | dose: 400.0 mg/kg/injection, schedule: Q04DX003 (ip), vehicle: gum acacia 93 % of control

Cc1c[nH]c(=O)[nH]c1=O
inactive: dose: 32.0 mg/kg/injection, schedule: Q01DX009 (ip), vehicle: Klucel (hydroxypropylcellulose) (HPC) 97 % of control and 102 % of control | dose: 32.0 mg/kg/injection, schedule: Q01DX009 (ip), vehicle: saline with Tween-80 91 % of control | dose: 64.0 mg/kg/injection, schedule: Q01DX009 (ip), vehicle: Klucel (hydroxypropylcellulose) (HPC) 97 % of control | dose: 64.0 mg/kg/injection, schedule: Q01DX009 (ip), vehicle: saline with Tween-80 100 % of control | dose: 128.0 mg/kg/injection, schedule: Q01DX009 (ip), vehicle: Klucel (hydroxypropylcellulose) (HPC) 97 % of control and 103 % of control | dose: 256.0 mg/kg/injection, schedule: Q01DX009 (ip), vehicle: Klucel (hydroxypropylcellulose) (HPC) 100 % of control and 103 % of control | dose: 512.0 mg/kg/injection, schedule: Q01DX009 (ip), vehicle: Klucel (hydroxypropylcellulose) (HPC) 98 % of control and 103 % of control | dose: 512.0 mg/kg/injection, schedule: Q01DX009 (ip), vehicle: saline with Tween-80 107 % of control

c1ccc(-c2nnc(-c3ccccn3)nn2)nc1
inactive: [2] 103 % of control | [3] 107 % of control | [4] 97 % of control | [5] 96 % of control

C[C@]12CC[C@@H]3c4ccc(OC(=O)Cc5ccc(N(CCCl)CCCl)cc5)cc4CC[C@H]3[C@@H]1CC[C@@H]2OC(=O)Cc1ccc(N(CCCl)CCCl)cc1
inactive: [6] 95 % of control | [1] 108 % of control | [2] 104 % of control | dose: 64.0 mg/kg/injection, schedule: Q02DX009 (ip), vehicle: Klucel (hydroxypropylcellulose) (HPC) 95 % of control | [3] 111 % of control | [4] 118 % of control | dose: 256.0 mg/kg/injection, schedule: Q02DX009 (ip), vehicle: Klucel (hydroxypropylcellulose) (HPC) 90 % of control | [5] 123 % of control

CCOC(CNC(=O)CC(C)=O)OCC
inactive: dose: 100.0 mg/kg/injection, schedule: Q01DX009 (ip), vehicle: saline 110 % of control | dose: 200.0 mg/kg/injection, schedule: Q01DX009 (ip), vehicle: saline 118 % of control | dose: 400.0 mg/kg/injection, schedule: Q01DX009 (ip), vehicle: saline 106 % of control

O=C(O)C1c2ccccc2Cc2ccccc21
inactive: dose: 37.5 mg/kg/injection, schedule: Q04DX003 (ip), vehicle: Klucel (hydroxypropylcellulose) (HPC) 122 % of control | [2] 97 % of control | dose: 75.0 mg/kg/injection, schedule: Q04DX003 (ip), vehicle: Klucel (hydroxypropylcellulose) (HPC) 119 % of control | [3] 100 % of control | dose: 150.0 mg/kg/injection, schedule: Q04DX003 (ip), vehicle: Klucel (hydroxypropylcellulose) (HPC) 119 % of control | [4] 105 % of control

O=C1CN=C(c2ccccc2Cl)c2cc(Cl)ccc2N1
inactive: dose: 0.01 mg/kg/injection, schedule: Q01DX009 (ip), vehicle: Klucel (hydroxypropylcellulose) (HPC) 100 % of control | dose: 0.02 mg/kg/injection, schedule: Q01DX009 (ip), vehicle: Klucel (hydroxypropylcellulose) (HPC) 86 % of control | dose: 0.04 mg/kg/injection, schedule: Q01DX009 (ip), vehicle: Klucel (hydroxypropylcellulose) (HPC) 86 % of control | dose: 0.09 mg/kg/injection, schedule: Q01DX009 (ip), vehicle: Klucel (hydroxypropylcellulose) (HPC) 86 % of control | dose: 0.39 mg/kg/injection, schedule: Q01DX009 (ip), vehicle: Klucel (hydroxypropylcellulose) (HPC) 91 % of control | dose: 0.78 mg/kg/injection, schedule: Q01DX009 (ip), vehicle: Klucel (hydroxypropylcellulose) (HPC) 88 % of control | dose: 1.56 mg/kg/injection, schedule: Q01DX009 (ip), vehicle: Klucel (hydroxypropylcellulose) (HPC) 86 % of control | dose: 3.12 mg/kg/injection, schedule: Q01DX009 (ip), vehicle: Klucel (hydroxypropylcellulose) (HPC) 89 % of control | [4] 90 % of control | dose: 0.6 micrograms/kg/injection, schedule: Q01DX009 (ip), vehicle: Klucel (hydroxypropylcellulose) (HPC) 111 % of control | dose: 1.2 micrograms/kg/injection, schedule: Q01DX009 (ip), vehicle: Klucel (hydroxypropylcellulose) (HPC) 104 % of control | dose: 2.5 micrograms/kg/injection, schedule: Q01DX009 (ip), vehicle: Klucel (hydroxypropylcellulose) (HPC) 105 % of control | dose: 5.0 micrograms/kg/injection, schedule: Q01DX009 (ip), vehicle: Klucel (hydroxypropylcellulose) (HPC) 95 % of control | dose: 10.0 micrograms/kg/injection, schedule: Q01DX009 (ip), vehicle: Klucel (hydroxypropylcellulose) (HPC) 112 % of control

ClC(Cl)=[C](Cl)[Hg][C](Cl)=C(Cl)Cl
inactive: dose: 3.13 mg/kg/injection, schedule: Q01DX009 (ip), vehicle: Klucel (hydroxypropylcellulose) (HPC) 120 % of control | dose: 6.25 mg/kg/injection, schedule: Q01DX009 (ip), vehicle: Klucel (hydroxypropylcellulose) (HPC) 99 % of control | [6] 92 % of control

CCc1ccc(C(=O)CCCCl)cc1
inactive: [7] 102 % of control | [8] 100 % of control | [9] 109 % of control

O=[N+]([O-])c1cc(Br)cc(Br)c1S(=O)(=O)O
inactive: dose: 100.0 mg/kg/injection, schedule: Q04DX003 (ip), vehicle: saline 100 % of control | dose: 200.0 mg/kg/injection, schedule: Q04DX003 (ip), vehicle: saline 108 % of control | dose: 400.0 mg/kg/injection, schedule: Q04DX003 (ip), vehicle: saline 104 % of control

S=C(N=Nc1ccccc1)NNc1ccccc1
inactive: dose: 18.8 mg/kg/injection, schedule: Q04DX003 (ip), vehicle: saline with Tween-80 102 % of control | dose: 18.9 mg/kg/injection, schedule: Q01DX009 (ip), vehicle: saline with Tween-80 88 % of control | dose: 37.5 mg/kg/injection, schedule: Q01DX009 (ip), vehicle: saline with Tween-80 93 % of control | dose: 37.5 mg/kg/injection, schedule: Q04DX003 (ip), vehicle: saline with Tween-80 92 % of control | dose: 75.0 mg/kg/injection, schedule: Q04DX003 (ip), vehicle: saline with Tween-80 92 % of control | dose: 150.0 mg/kg/injection, schedule: Q04DX003 (ip), vehicle: saline with Tween-80 97 % of control

CCOC(=O)NNC(=O)c1ccccc1N(C)C
inactive: [3] 116 % of control | [4] 104 % of control | [5] 92 % of control

Nc1ccc(S(N)(=O)=O)cc1
inactive: [10] 97 % of control and 99 % of control | [7] 94 % of control and 102 % of control | [8] 91 % of control and 100 % of control | [9] 96 % of control and 102 % of control | dose: 400.0 mg/kg/injection, schedule: Q01DX009 (ip), vehicle: saline with Tween-80 99 % of control and 105 % of control

O=P(OCC(Br)CBr)(OCC(Br)CBr)OCC(Br)CBr (configuration not stated)
inactive: dose: 100.0 mg/kg/injection, schedule: Q04DX003 (ip), vehicle: Klucel (hydroxypropylcellulose) (HPC) 100 % of control | dose: 200.0 mg/kg/injection, schedule: Q04DX003 (ip), vehicle: Klucel (hydroxypropylcellulose) (HPC) 102 % of control | dose: 400.0 mg/kg/injection, schedule: Q04DX003 (ip), vehicle: Klucel (hydroxypropylcellulose) (HPC) 101 % of control

CCc1ccccc1NC(=O)C(c1ccccc1)c1ccccc1
inactive: [10] 99 % of control | [7] 97 % of control | [8] 92 % of control
